Tests used:
in vitro = conditions: male, Sprague-Dawley, rat, liver microsomes
[1] = target: Nuclear receptor subfamily 4 group A member 3 (Homo sapiens, UniProt Q92570); test: Inverse agonist activity at human NOR-1 (393 to 626 residues) transfected in HEK293T cells incubated for 16 hrs by firefly/renilla based Dual-Glo luciferase assay; format: cell-based
[2] = target: T1, Nuclear receptor subfamily 1 group I member 2 (Homo sapiens, UniProt O75469); test: Inverse agonist activity at human PXR transfected in HEK293T cells incubated for 16 hrs by firefly/renilla based Dual-Glo luciferase assay; format: cell-based
T1 sequence (O75469 whole entry): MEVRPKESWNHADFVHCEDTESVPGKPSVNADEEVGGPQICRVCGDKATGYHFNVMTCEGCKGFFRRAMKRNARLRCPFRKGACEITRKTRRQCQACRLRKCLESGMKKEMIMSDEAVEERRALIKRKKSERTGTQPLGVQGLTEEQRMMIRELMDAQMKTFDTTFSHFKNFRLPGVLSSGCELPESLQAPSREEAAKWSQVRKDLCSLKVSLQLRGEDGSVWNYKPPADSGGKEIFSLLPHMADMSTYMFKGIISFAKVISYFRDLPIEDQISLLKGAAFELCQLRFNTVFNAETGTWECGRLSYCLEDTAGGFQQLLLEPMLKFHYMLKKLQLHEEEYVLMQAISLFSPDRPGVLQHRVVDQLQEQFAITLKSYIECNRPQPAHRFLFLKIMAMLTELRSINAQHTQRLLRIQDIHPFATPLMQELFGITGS

[3] = target: T2, Nuclear receptor subfamily 1 group I member 3 (Homo sapiens, UniProt Q14994); test: Inverse agonist activity at human CAR transfected in HEK293T cells incubated for 16 hrs by firefly/renilla based Dual-Glo luciferase assay; format: cell-based
T2 sequence (Q14994 whole entry): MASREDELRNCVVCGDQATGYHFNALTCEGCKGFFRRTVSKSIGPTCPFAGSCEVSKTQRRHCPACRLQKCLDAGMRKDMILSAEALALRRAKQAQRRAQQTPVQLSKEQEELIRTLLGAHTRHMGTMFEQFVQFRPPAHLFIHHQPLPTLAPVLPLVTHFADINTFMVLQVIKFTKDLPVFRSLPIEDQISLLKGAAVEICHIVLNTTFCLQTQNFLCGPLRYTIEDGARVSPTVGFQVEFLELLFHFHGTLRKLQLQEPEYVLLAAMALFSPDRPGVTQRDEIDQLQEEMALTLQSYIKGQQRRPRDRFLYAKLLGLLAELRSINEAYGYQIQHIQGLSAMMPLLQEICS

[4] = target: Nuclear receptor subfamily 4 group A member 2 (Homo sapiens, UniProt P43354); test: Inverse agonist activity at Gal4-fused human […] Nurr1 LBD transfected in HEK293T cells assessed as suppression of Nurr1 activation incubated for 16 hrs by firefly/renilla based Dual-Glo luciferase assay; format: cell-based
Nuclear receptor subfamily 4 group A member 2, sequence (P43354 whole entry, the tested form may be a part): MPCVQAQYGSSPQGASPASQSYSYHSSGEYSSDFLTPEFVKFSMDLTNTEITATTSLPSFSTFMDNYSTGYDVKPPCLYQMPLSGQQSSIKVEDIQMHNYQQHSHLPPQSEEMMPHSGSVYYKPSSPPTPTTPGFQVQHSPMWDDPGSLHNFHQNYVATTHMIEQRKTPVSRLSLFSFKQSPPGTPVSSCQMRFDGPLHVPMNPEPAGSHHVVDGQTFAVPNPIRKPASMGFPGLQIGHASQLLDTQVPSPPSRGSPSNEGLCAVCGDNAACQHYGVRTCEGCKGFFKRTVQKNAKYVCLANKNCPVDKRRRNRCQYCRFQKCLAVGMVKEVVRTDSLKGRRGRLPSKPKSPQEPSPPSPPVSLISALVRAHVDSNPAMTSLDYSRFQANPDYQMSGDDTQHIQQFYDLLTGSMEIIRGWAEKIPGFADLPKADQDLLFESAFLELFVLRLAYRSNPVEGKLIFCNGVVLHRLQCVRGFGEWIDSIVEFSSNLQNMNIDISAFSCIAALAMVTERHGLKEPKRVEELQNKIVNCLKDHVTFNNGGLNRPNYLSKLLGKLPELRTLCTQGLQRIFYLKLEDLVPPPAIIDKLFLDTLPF

Nuclear receptor subfamily 4 group A member 3, sequence (Q92570 whole entry, the tested form may be a part): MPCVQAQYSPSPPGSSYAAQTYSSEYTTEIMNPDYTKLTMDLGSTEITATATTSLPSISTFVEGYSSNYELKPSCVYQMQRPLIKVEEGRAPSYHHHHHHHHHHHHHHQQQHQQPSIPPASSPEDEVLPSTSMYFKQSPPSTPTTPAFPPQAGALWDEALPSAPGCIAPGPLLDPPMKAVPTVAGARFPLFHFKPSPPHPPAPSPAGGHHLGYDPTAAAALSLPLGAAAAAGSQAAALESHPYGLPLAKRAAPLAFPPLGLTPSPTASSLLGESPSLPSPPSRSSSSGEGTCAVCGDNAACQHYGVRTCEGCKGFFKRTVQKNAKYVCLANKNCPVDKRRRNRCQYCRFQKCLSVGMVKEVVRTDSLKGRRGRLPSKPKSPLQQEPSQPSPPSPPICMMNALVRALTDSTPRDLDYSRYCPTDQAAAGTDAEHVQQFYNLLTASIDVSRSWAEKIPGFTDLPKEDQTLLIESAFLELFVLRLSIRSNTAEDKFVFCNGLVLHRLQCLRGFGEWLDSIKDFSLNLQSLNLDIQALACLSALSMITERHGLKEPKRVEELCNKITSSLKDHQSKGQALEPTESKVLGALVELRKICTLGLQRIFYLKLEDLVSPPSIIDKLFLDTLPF

Row | SMILES | half-life at 1 h, 10 µM (in vitro) | IC50 [1] | Activity [2] | also measured
1 | CC(C)NCC(O)COc1cccc2ccccc12 (stereo not drawn) [PROPRANOLOL] | 64 min |  |  | 
2 | CN(C)C(=O)CCc1nc(-c2ccccc2)c(-c2ccccc2Cl)o1 |  | 29 µM | Active | Activity [3]: Active
3 | O=C(O)/C=C/c1nc(-c2ccccc2)c(-c2ccccc2)o1 |  | 3.8 µM | Active | 
4 | Cc1cccc(-c2oc(CCC(=O)O)nc2-c2ccccc2)c1 |  |  |  | IC50 [4]: > 50 µM
5 | CN(C)C(=O)/C=C/c1nc(-c2ccccc2)c(-c2ccccc2)o1 | 30 min |  |  | 

From ChEMBL document CHEMBL5523770 (J Med Chem, 2024)
